In publication PMC10247784, “Physiological activation of human and mouse bitter taste receptors by bile acids” (Communications Biology, 2023):
Several values for one entry are separate records, joined by “and”; a condition that tells them apart may be missing. Equal values may be shown once.

Molecular target: T1, human TAS2R14 (Homo sapiens, UniProt Q9NYV8)
T1 construct: expressed in transfected cells; host or cells: HEK293T-Gα16gust44
T1 sequence (Q9NYV8 1-317): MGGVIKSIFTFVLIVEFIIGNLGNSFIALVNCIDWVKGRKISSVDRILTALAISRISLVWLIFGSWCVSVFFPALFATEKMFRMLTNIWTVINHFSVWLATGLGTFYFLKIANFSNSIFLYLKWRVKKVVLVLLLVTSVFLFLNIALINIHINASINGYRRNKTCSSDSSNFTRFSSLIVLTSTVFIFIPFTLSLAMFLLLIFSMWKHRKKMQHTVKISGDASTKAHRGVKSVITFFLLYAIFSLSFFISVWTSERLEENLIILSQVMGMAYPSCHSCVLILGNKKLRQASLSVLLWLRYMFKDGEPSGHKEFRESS
Assay: Calcium imaging assay (FLIPR), HEK293T-Gα16gust44 cells transfected with human TAS2R14
Format: cell-based
Settings: for RLU: TAS2R14 trace
Summary of the method: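 Bile acids from DMSO stocks are applied to dye-loaded cells one day after transient receptor transfection, and calcium-dependent fluorescence is recorded. Maximum signal is standardized to basal and normalized to buffer-only wells, with empty-vector signal subtracted.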

Efficacy = maximal amplitude (ΔF/F) (TAS2R14, bile acids, mean): 0.05441
Efficacy (maximal amplitude ΔF/F), individual data points (TAS2R14, bile acids, single replicates, listed as CDCA): 0.0148 and 0.07816 and 0.07028
Δ F/F (TAS2R14, conc. 0,01 mM): 0.006116
Δ F/F (TAS2R14, conc. 0,03 mM): 0.05441
Δ F/F (TAS2R14, conc. 0,00003 mM): -0.01882
Δ F/F (TAS2R14, conc. 0,0001 mM): -0.01861
Δ F/F (TAS2R14, conc. 0,0003 mM): -0.02118
Δ F/F (TAS2R14, conc. 0,001 mM): -0.02299
Δ F/F (TAS2R14, conc. 0,003 mM): -0.02084
RLU (Time (s) 0): 0 RLU
RLU (Time (s) 2 (Taurocholic Acid 2.016)): -49.1645 RLU
RLU (Time (s) 4 (Taurocholic Acid 4.016)): -25.5098 RLU
RLU (Time (s) 6 (Taurocholic Acid 6.016)): -14.6279 RLU
RLU (Time (s) 8 (Taurocholic Acid 8.016)): -24.697 RLU
RLU (Time (s) 12 (Taurocholic Acid 12.016)): -44.0879 RLU
RLU (Time (s) 14 (Taurocholic Acid 14.016)): -37.1122 RLU
RLU (Time (s) 16 (Taurocholic Acid 16.016)): -43.9695 RLU
RLU (Time (s) 18 (Taurocholic Acid 18.016)): -32.8497 RLU
RLU (Time (s) 18.797 (Chenodeoxycholic Acid 18.765)): 7.956 RLU
RLU (Time (s) 20.797 (Chenodeoxycholic Acid 20.781)): 109.495 RLU
RLU (Time (s) 22.797 (Chenodeoxycholic Acid 22.781)): 144.429 RLU
RLU (Time (s) 24.797 (Chenodeoxycholic Acid 24.781)): 188.481 RLU
RLU (Time (s) 26.797 (Chenodeoxycholic Acid 26.781)): 194.457 RLU
RLU (Time (s) 28.797 (Chenodeoxycholic Acid 28.781)): 226.874 RLU
RLU (Time (s) 30.797 (Chenodeoxycholic Acid 30.781)): 234.892 RLU
RLU (Time (s) 32.797 (Chenodeoxycholic Acid 32.781)): 237.826 RLU
RLU (Time (s) 34.797 (Chenodeoxycholic Acid 34.781)): 263.919 RLU
RLU (Time (s) 36.797 (Chenodeoxycholic Acid 36.781)): 289.916 RLU
RLU (Time (s) 38.797 (Chenodeoxycholic Acid 38.781)): 280.38 RLU
RLU (Time (s) 40.797 (Chenodeoxycholic Acid 40.781)): 364.7 RLU
RLU (Time (s) 42.797 (Chenodeoxycholic Acid 42.781)): 389.665 RLU
RLU (Time (s) 44.797 (Chenodeoxycholic Acid 44.781)): 409.588 RLU
RLU (Time (s) 46.797 (Chenodeoxycholic Acid 46.781)): 412.285 RLU
RLU (Time (s) 48.797 (Chenodeoxycholic Acid 48.781)): 462.382 RLU
RLU (Time (s) 50.797 (Chenodeoxycholic Acid 50.781)): 489.05 RLU
RLU (Time (s) 52.797 (Chenodeoxycholic Acid 52.781)): 480.824 RLU
RLU (Time (s) 54.797 (Chenodeoxycholic Acid 54.781)): 484 RLU
RLU (Time (s) 56.797 (Chenodeoxycholic Acid 56.781)): 514.521 RLU
RLU (Time (s) 58.797 (Chenodeoxycholic Acid 58.781)): 561.552 RLU
RLU (Time (s) 60.797 (Chenodeoxycholic Acid 60.781)): 547.999 RLU
RLU (Time (s) 62.797 (Chenodeoxycholic Acid 62.781)): 553.072 RLU
RLU (Time (s) 64.797 (Chenodeoxycholic Acid 64.781)): 596.368 RLU
RLU (Time (s) 66.797 (Chenodeoxycholic Acid 66.781)): 582.133 RLU
RLU (Time (s) 68.797 (Chenodeoxycholic Acid 68.781)): 591.364 RLU
RLU (Time (s) 70.797 (Chenodeoxycholic Acid 70.781)): 612.747 RLU
RLU (Time (s) 72.797 (Chenodeoxycholic Acid 72.781)): 626.948 RLU
RLU (Time (s) 74.797 (Chenodeoxycholic Acid 74.781)): 600.862 RLU
RLU (Time (s) 76.797 (Chenodeoxycholic Acid 76.781)): 644.716 RLU
RLU (Time (s) 78.797 (Chenodeoxycholic Acid 78.781)): 648.451 RLU
RLU (Time (s) 80.797 (Chenodeoxycholic Acid 80.781)): 604.524 RLU
RLU (Time (s) 82.797 (Chenodeoxycholic Acid 82.781)): 653.18 RLU
RLU (Time (s) 84.797 (Chenodeoxycholic Acid 84.781)): 678.438 RLU
RLU (Time (s) 86.797 (Chenodeoxycholic Acid 86.781)): 660.126 RLU
RLU (Time (s) 88.797 (Chenodeoxycholic Acid 88.781)): 638.796 RLU
RLU (Time (s) 90.797 (Chenodeoxycholic Acid 90.781)): 637.499 RLU
RLU (Time (s) 92.797 (Chenodeoxycholic Acid 92.781)): 628.913 RLU
RLU (Time (s) 94.797 (Chenodeoxycholic Acid 94.781)): 638.53 RLU
RLU (Time (s) 96.797 (Chenodeoxycholic Acid 96.781)): 632.564 RLU
RLU (Time (s) 98.797 (Chenodeoxycholic Acid 98.781)): 628.21 RLU
RLU (Time (s) 100.797 (Chenodeoxycholic Acid 100.781)): 613.502 RLU
RLU (Time (s) 102.797 (Chenodeoxycholic Acid 102.781)): 604.41 RLU
RLU (Time (s) 104.797 (Chenodeoxycholic Acid 104.781)): 599.892 RLU
RLU (Time (s) 106.797 (Chenodeoxycholic Acid 106.781)): 563.223 RLU
RLU (Time (s) 108.797 (Chenodeoxycholic Acid 108.781)): 594.081 RLU
RLU (Time (s) 110.797 (Chenodeoxycholic Acid 110.781)): 586.278 RLU
RLU (Time (s) 112.797 (Chenodeoxycholic Acid 112.781)): 550.791 RLU
RLU (Time (s) 114.797 (Chenodeoxycholic Acid 114.781)): 544.911 RLU
RLU (Time (s) 116.797 (Chenodeoxycholic Acid 116.781)): 535.277 RLU
RLU (Time (s) 118.797 (Chenodeoxycholic Acid 118.781)): 521.394 RLU
RLU (Time (s) 120.797 (Chenodeoxycholic Acid 120.781)): 516.9 RLU
RLU (Time (s) 122.797 (Chenodeoxycholic Acid 122.781)): 506.351 RLU
RLU (Time (s) 124.797 (Chenodeoxycholic Acid 124.781)): 491.947 RLU
RLU (Time (s) 126.797 (Chenodeoxycholic Acid 126.781)): 464.952 RLU
RLU (Time (s) 128.797 (Chenodeoxycholic Acid 128.781)): 465.396 RLU
RLU (Time (s) 130.797 (Chenodeoxycholic Acid 130.781)): 467.418 RLU
RLU (Time (s) 132.797 (Chenodeoxycholic Acid 132.781)): 469.949 RLU
RLU (Time (s) 134.797 (Chenodeoxycholic Acid 134.781)): 415.628 RLU
RLU (Time (s) 136.797 (Chenodeoxycholic Acid 136.781)): 432.183 RLU
RLU (Time (s) 137.562 (Taurocholic Acid 137.563, Chenodeoxycholic Acid 137.546)): 452.404 RLU
RLU (Time (s) 143.578 (Taurocholic Acid 143.563, Chenodeoxycholic Acid 143.546)): 380.071 RLU
RLU (Time (s) 149.578 (Taurocholic Acid 149.563, Chenodeoxycholic Acid 149.546)): 382.743 RLU
RLU (Time (s) 155.578 (Taurocholic Acid 155.563, Chenodeoxycholic Acid 155.546)): 336.968 RLU
RLU (Time (s) 161.578 (Taurocholic Acid 161.563, Chenodeoxycholic Acid 161.546)): 359.379 RLU
RLU (Time (s) 167.578 (Taurocholic Acid 167.563, Chenodeoxycholic Acid 167.546)): 343.975 RLU
RLU (Time (s) 173.578 (Taurocholic Acid 173.563, Chenodeoxycholic Acid 173.546)): 278.705 RLU
RLU (Time (s) 179.578 (Taurocholic Acid 179.563, Chenodeoxycholic Acid 179.546)): 300.666 RLU
RLU (Time (s) 191.578 (Taurocholic Acid 191.563, Chenodeoxycholic Acid 191.546)): 185.369 RLU
RLU (Time (s) 197.578 (Taurocholic Acid 197.563, Chenodeoxycholic Acid 197.546)): 161.87 RLU
RLU (Time (s) 209.578 (Taurocholic Acid 209.563, Chenodeoxycholic Acid 209.546)): 179.275 RLU
RLU (Time (s) 221.578 (Taurocholic Acid 221.563, Chenodeoxycholic Acid 221.546)): 182.465 RLU
RLU (Time (s) 233.578 (Taurocholic Acid 233.563, Chenodeoxycholic Acid 233.546)): 198.132 RLU
RLU (Time (s) 239.578 (Taurocholic Acid 239.563, Chenodeoxycholic Acid 239.546)): 183.585 RLU
RLU (Time (s) 245.578 (Taurocholic Acid 245.563, Chenodeoxycholic Acid 245.546)): 212.748 RLU
RLU (Time (s) 293.578 (Taurocholic Acid 293.563, Chenodeoxycholic Acid 293.546)): 209.963 RLU
RLU (Time (s) 299.578 (Taurocholic Acid 299.563, Chenodeoxycholic Acid 299.546)): 216.371 RLU
RLU (Time (s) 305.578 (Taurocholic Acid 305.563, Chenodeoxycholic Acid 305.546)): 208.994 RLU
RLU (Time (s) 311.578 (Taurocholic Acid 311.563, Chenodeoxycholic Acid 311.546)): 184.812 RLU
RLU (Time (s) 317.578 (Taurocholic Acid 317.563, Chenodeoxycholic Acid 317.546)): 189.014 RLU
RLU (Time (s) 323.578 (Taurocholic Acid 323.563, Chenodeoxycholic Acid 323.546)): 182.748 RLU
RLU (Time (s) 329.578 (Taurocholic Acid 329.563, Chenodeoxycholic Acid 329.546)): 195.394 RLU
RLU (Time (s) 335.578 (Taurocholic Acid 335.563, Chenodeoxycholic Acid 335.546)): 190.135 RLU
RLU (Time (s) 341.578 (Taurocholic Acid 341.563, Chenodeoxycholic Acid 341.546)): 187.029 RLU
RLU (Time (s) 347.578 (Taurocholic Acid 347.563, Chenodeoxycholic Acid 347.546)): 164.841 RLU
RLU (Time (s) 353.578 (Taurocholic Acid 353.563, Chenodeoxycholic Acid 353.546)): 198.762 RLU
RLU (Time (s) 359.578 (Taurocholic Acid 359.563, Chenodeoxycholic Acid 359.546)): 181.785 RLU
Activation threshold concentration TAS2R14 (lowest concentration with significantly increased fluorescence vs empty vector (p < 0.01)): 30 µM
Receptor response TAS2R14 (screening): activated
Structure (SMILES): C[C@H](CCC(=O)O)[C@H]1CC[C@H]2[C@@H]3[C@H](O)C[C@@H]4C[C@H](O)CC[C@]4(C)[C@H]3CC[C@]12C [Chenodeoxycholic Acid, chenodeoxycholic acid]
